The structures appear in SMILES notation.

The record followed here is PubChem BioAssay AID463229 (Broad Institute, 2010).

For the test, the system named is INS-1E rat beta cells, no cytokines, CellTiter-Glo ATP, 48 h. The experiment in a line: ATP level change in INS-1E without cytokines, dose response, counter-screen for beta-cell apoptosis protection project, INS-1E rat cells, ATP luminescence, cherry pick (AID 463229). In general terms: A counterscreen serves to expose hits that act by an unwanted route or on another target.
Broadly, the AC50 is the concentration giving half of the maximal activity seen. `CC(=O)NC(c1ccccc1)c1cc(Cl)c2cccnc2c1O` (centres undefined): the AC50 is 6.26 µM.

In the case of `C/C(=N\NC(=O)COc1ccccc1-c1ccccc1)c1ccc(O)cc1O`, the AC50 is 10.5 µM.

Turning to `Cc1ccc(S(=O)(=O)N2CCN(c3ncnc4sccc34)CC2)cc1`, the AC50 is 8.15 µM.

Take `CCN1CCN(CCCNC(=O)c2ccc3c(c2)NC(=O)/C(=C\c2cccc(C)c2)S3)CC1`: the AC50 was 12.3 µM.

With `CC1=NNC(=O)/C1=C\c1cn(-c2ccccc2)nc1-c1cccs1`, the half-maximal activity concentration (AC50) was 7.54 µM.

On to `Cc1cc(N/N=C/c2cccc(Cl)c2)nc(-n2nc(C)cc2C)n1`, for which the AC50 is 16.4 µM.

For `COc1cc(/C=C/C(=O)c2ccc([N+](=O)[O-])o2)ccc1O`, the AC50 is 3.91 µM.

As to `CCn1nc(C)c(CNC(=O)c2ccc(OC3CCN(Cc4ccccn4)CC3)cc2)c1C`, the concentration at half-maximal activity (AC50) was 6.9 µM.

Consider `CCN(CC)S(=O)(=O)c1cc(OC)ccc1N=Nc1ccc(O)c2ncccc12`, for which the AC50 is 4.04 µM.

As for `CCOc1ccc(C(=O)N/N=C(\c2ccccc2)c2ccccn2)cc1`, the AC50 is 4.89 µM.

Take `CN(C)c1ccc(-c2cc(O)c3ncccc3c2)cc1`: the AC50 was 26.9 µM.

As to `COc1ccc(C(=O)c2c(C(F)(F)F)oc3c2C(=O)c2ccccc2C3=O)cc1`, the AC50 was 6.74 µM.

With `C=CCSc1nsc(NC(=O)Nc2ccc(F)cc2)n1`, the AC50 is 3.4 µM.

Take `Cc1[nH]n(-c2ccccc2)c(=O)c1/C=N/NC(=O)c1cccc(F)c1`: the AC50 was 4.23 µM.

On to `Cc1ccc(NC(=O)/C=C/c2ccc([N+](=O)[O-])s2)c(C)c1`, for which the AC50 is 13.1 µM.

`CC(=O)C1=C(c2ccc(Br)cc2)C(=O)c2ccccc2C1=O`: the AC50 is 3.63 µM.

`CCCCCCc1cc2cc(C(=O)Nc3ccccc3)c(=O)oc2cc1O`: the AC50 is 3.24 µM.

In the case of `CC1C/C(=C/c2ccncc2)C(=O)/C(=C/c2ccncc2)C1` (centres undefined), the AC50 was 4.62 µM.

On to `COc1cc(/C=C2\CC(C(C)(C)C)C/C(=C\c3cc(OC)c(OC)c(OC)c3)C2=O)cc(OC)c1OC` (centres undefined), for which the concentration at half-maximal activity (AC50) was 6.04 µM.

In the case of `O=C(Nc1cccnc1)C1(F)C(F)(F)C(F)(F)C(F)(F)C(F)(F)C1(F)F`, the AC50 was 3.56 µM.

Regarding `Cc1cc(C)nc(SCC(=O)Nc2ccnc3ccccc23)n1`, the AC50 was 7.55 µM.

As for `Oc1cccc(C(Nc2nccs2)c2ccc3cccnc3c2O)c1` (centres undefined), the concentration at half-maximal activity (AC50) was 2.54 µM.

With `O=C(/C(=C/c1ccc(Cl)cc1)c1nc2ccccc2[nH]1)c1ccccc1`, the AC50 is 4.04 µM.

With `COc1ccccc1-[n+]1c(C)cc(/C=C2\Sc3ccccc3N2C)cc1C`, the AC50 is less than 0.195 µM.

Take `CC(C)(C)c1cc(CCC(=O)NNC(=S)NC(=O)c2ccccc2)cc(C(C)(C)C)c1O`: the AC50 is 7.17 µM.

On to `COc1ccccc1N1CCN(Cc2cc(Br)c(O)c3ncccc23)CC1`, for which the AC50 is 5.72 µM.

For `COc1ccc2nc3cc(Cl)ccc3c(Nc3cc(CN4CCCC4)c(O)c(CN4CCCC4)c3)c2n1`, the concentration at half-maximal activity (AC50) is 19.5 µM.

On to `CCCn1c(Nc2nc3ccccc3n2C)nc2ccccc21`, for which the AC50 was 7.26 µM.

For the molecule `CCN(CC)S(=O)(=O)c1cc(NC(=O)CNc2cccc(S(=O)(=O)N3CCCC3)c2)ccc1C`, the AC50 is 7.43 µM.

Regarding `O=C(NC(c1cccnc1)C(F)(F)F)c1cc(COc2ccc3c(c2)CCCC3)on1` (centres undefined), the AC50 was 4.62 µM.

On to `O=S(=O)(Nc1nc2ccccc2nc1Nc1ccc(N2CCOCC2)cc1)c1cc(Cl)ccc1Cl`, for which the concentration at half-maximal activity (AC50) was 6.63 µM.

As for `O=C(CSc1nnc(Cn2nnc3ccccc32)o1)N(Cc1ccc(Cl)cc1)c1ccccc1`, the AC50 was 6.17 µM.

In the case of `CC1=C(C)/C(=N\OS(=O)(=O)c2ccc(C)cc2)C=CC1=O`, the AC50 is 4.47 µM.

Turning to `CS(=O)(=O)N(CC(=O)Nc1ccc(CC#N)cc1)c1ccc(C23CC4CC(CC(C4)C2)C3)cc1`, the AC50 is 7.41 µM.

Take `Cc1ccc(-n2c(Cl)c(Cl)nc(Cl)c2=O)cc1`: the concentration at half-maximal activity (AC50) is 6.66 µM.

Regarding `O=C(N/N=C/c1ccc(O)cc1O)c1ccc(CN2C(=O)c3cccc4cccc2c34)cc1`, the AC50 is 3.89 µM.

With `O=C(NCCc1ccccc1)[C@@H]1CC=C[C@@H]2CCN(Cc3ccc(Cl)c(Cl)c3)C(=O)[C@@H]21`, the AC50 was 13.2 µM.

For `CCCCCc1ccc(OCCCC[n+]2ccccc2)c(CCCCC)c1`, the AC50 is 3.3 µM.

Consider `CCc1ccc2[nH]c(=O)c(C3C(C#N)=C(N)Oc4c3ccc3cccnc43)cc2c1` (centres undefined), for which the AC50 was 5.4 µM.

On to `CCCCCCc1cc2cc(-c3nnc(-c4ccccc4)o3)c(=O)oc2cc1O`, for which the AC50 is 7.25 µM.

`O=C(Nc1nc(-c2ccccn2)cs1)c1ccc(Cl)s1`: the concentration at half-maximal activity (AC50) is 4.38 µM.

Turning to `Cc1ccc(C#CC[N+]2(CC#Cc3ccc(C)cc3)CCCCC2)cc1`, the AC50 is 3.33 µM.

For the molecule `Cc1cccc2sc(NNC(=O)c3ccc(S(=O)(=O)N4CC(C)CC(C)C4)cc3)nc12` (centres undefined), the AC50 was 6.52 µM.

For the molecule `c1ccc(CNc2nc(NCc3ccccc3)c3ccccc3n2)cc1`, the AC50 was 11.1 µM.

Regarding `Nc1nc(N)c2cc(Sc3ccc4ccccc4c3)ccc2n1`, the half-maximal activity concentration (AC50) was 2.09 µM.

For `[O-]c1ccccc1-[n+]1c(-c2ccccc2)cc(-c2ccccc2)cc1-c1ccccc1`, the AC50 was 6.87 µM.

Turning to `Cc1sc2ncnc(NCc3cccs3)c2c1C`, the AC50 is 6.4 µM.

Consider `Cc1cc(Cl)c(S(=O)(=O)N2CCN(c3ccc(F)cc3)CC2)cc1OCC(=O)NC1CCCCC1`, for which the AC50 was 7.07 µM.

With `N#Cc1ccc(-c2ccc(Cl)cc2)nc1SCC(=O)c1cccc(Cl)c1`, the half-maximal activity concentration (AC50) is 6 µM.

Turning to `COc1cccc(/C=N/NC(=O)c2[nH]nc3c2CCc2ccccc2-3)c1O`, the AC50 was 4.25 µM.

Turning to `CC(=O)c1cccc(NS(=O)(=O)c2ccc(N/C=C\C(=O)c3ccc(F)cc3)cc2)c1`, the AC50 was 4.97 µM.

For `O=C(NC1(Cc2ccccc2)CCN(CCCc2ccccc2)C1=O)c1ccccc1` (centres undefined), the AC50 is 4.71 µM.

`Cc1ccc2[nH]c(C(=O)N/N=C/c3ccccc3O)c(C)c2c1`: the AC50 was 2.33 µM.

Take `COc1ccc(CC2(CO)CCN(CC3=Cc4cc(Cl)ccc4OC3)CC2)cc1`: the AC50 was 4.18 µM.

In the case of `CC[C@@]1(O)C(=O)OCc2c1cc1n(c2=O)Cc2cc3c(N)cccc3nc2-1`, the AC50 was less than 0.195 µM.

Take `COc1ccc(C(=O)NC(=S)NNC(=O)c2cnccn2)cc1OC`: the AC50 was 7.95 µM.

On to `Cc1ccc(-c2csc(NC(=O)c3c(C)noc3C)n2)s1`, for which the half-maximal activity concentration (AC50) is 4.85 µM.

For the molecule `CN1/C(=C\C(=O)C[n+]2cccc(Br)c2)C(C)(C)c2ccccc21`, the AC50 was 5.88 µM.

On to `Cc1ccc(NC(=O)Nc2cccc([N+](=O)[O-])c2)cc1F`, for which the AC50 is 8.06 µM.

On to `CC(=O)c1c(C)[nH]c(C(=O)OCC(=O)Nc2ccc(C)cc2[N+](=O)[O-])c1C`, for which the concentration at half-maximal activity (AC50) is 1.6 µM.

On to `CCc1cc(C(=O)NC2CCCc3c2cnn3-c2cccc(C)c2C)n(C)n1` (centres undefined), for which the AC50 was less than 0.195 µM.

With `COC(=O)C1=C(C)N(Cc2ccccc2)C(=NCc2cccc(C(F)(F)F)c2)N[C@H]1c1cccc(F)c1`, the concentration at half-maximal activity (AC50) is 8.07 µM.

As for `Cc1ccccc1-c1cc(C(=O)Nc2sc(C)c(C)c2C(N)=O)c2ccccc2n1`, the AC50 is 6.8 µM.

On to `COc1ccc(/C=N/Nc2cc(C)nc3ccc(OC)cc23)c(OC)c1`, for which the AC50 is 13.5 µM.

As to `C1CCC(C(CC2CCCCN2)C2CCCCC2)CC1` (centres undefined), the AC50 is 9.74 µM.

With `O=C(Nc1nc2c(F)cc(F)cc2s1)c1ccccn1`, the AC50 was 6.37 µM.

On to `O=C(N/N=C/c1cc(Br)cc(Br)c1O)c1ccncc1`, for which the AC50 was 7.34 µM.

On to `N#Cc1c2ccc([N+](=O)[O-])cc2[n+]([O-])n1-c1ccccc1`, for which the AC50 is 5.32 µM.

As to `O=C(Nc1cccc(C(F)(F)F)c1)Nc1ccc(N2CCCC2)c(S(=O)(=O)Nc2ccccc2Cl)c1`, the AC50 was 4.27 µM.

On to `CC(C)CCCCCCNC(=S)Nc1ccc(S(=O)(=O)N2CCOCC2)cc1`, for which the AC50 is 12.6 µM.

On to `COc1cc(C)c(C(=O)CC(=O)c2c(C)cc(OC)cc2C)c(C)c1`, for which the AC50 is 13.7 µM.

With `Cc1ccc(NS(=O)(=O)c2cc([N+](=O)[O-])ccc2NNC(=S)Nc2cc(C)ccc2C)c(C)c1`, the AC50 is 4.65 µM.

For the molecule `CCC(CO)Oc1cc(NCc2ccc(C)c(C)c2)c2ncn(C(C)C)c2c1` (centres undefined), the AC50 was 4.91 µM.

On to `Clc1ccc(C[n+]2c(-c3ccccc3)cc(-c3ccccc3)cc2-c2ccccc2)cc1`, for which the concentration at half-maximal activity (AC50) is 2.01 µM.

With `Cc1ccc2nc(-c3ccc(-c4cccc(Cl)c4)cc3)c(NCc3ccccc3)n2c1`, the AC50 is 2.48 µM.

On to `COc1ccccc1NC(=O)Cn1cc(C(=O)c2ccco2)c2ccccc21`, for which the AC50 is 8.7 µM.

Consider `O=C(N=Nc1c(O)n(Cc2ccccc2)c2ccccc12)c1cc2ccccc2cc1O`, for which the AC50 is 8.07 µM.

In the case of `COc1ccc(-c2nn(-c3ccccc3)cc2C(=O)OCC(=O)c2ccc(C)c([N+](=O)[O-])c2)cc1`, the AC50 was 0.866 µM.

Regarding `CCc1ccc2[nH]c3nc(N/N=C/c4ccc(O)cc4O)nnc3c2c1`, the AC50 is 21.2 µM.

For the molecule `CCCCC(=O)NC(c1ccccc1)c1ccc2cccnc2c1O` (centres undefined), the AC50 was 2.24 µM.

Regarding `CCc1ccc(-n2cc(-c3ccc(F)cc3)[n+]3c2SCCC3)cc1`, the AC50 was 0.413 µM.

As for `Fc1ccc(-c2cc(-c3nnc4n3CCCCC4)c3ccccc3n2)cc1`, the AC50 is 8.53 µM.

As for `CCOC(=O)N1CCC(NC(=O)C2CCCN(Cc3nc(-c4cccc(Cl)c4)oc3C)C2)CC1` (centres undefined), the half-maximal activity concentration (AC50) is 6.01 µM.

With `CCCOC(=O)c1ccc(-[n+]2c(-c3ccccc3)cc(-c3ccccc3)cc2-c2ccccc2)cc1`, the AC50 was 2.15 µM.

In the case of `CC(C)(C)c1ccc(/C=C(\c2nc3ccccc3[nH]2)S(=O)(=O)c2ccccc2)cc1`, the AC50 is 7.37 µM.

With `O=S(=O)(c1ccc(Cl)cc1)N1CCN(Cc2ccc(O)c3ncccc23)CC1`, the half-maximal activity concentration (AC50) was 7.13 µM.

Consider `CCOc1cc(/C=C2\COc3ccccc3C2=O)cc(Br)c1OCC(=O)N(C)C`, for which the AC50 is 11.1 µM.

In the case of `C/C(=N\NC(=O)c1ccc(C)cc1)c1c(C)[nH]n(-c2ccccc2)c1=O`, the AC50 is 15.3 µM.

In the case of `O=C(CN(Cc1ccco1)Cc1ccco1)Nc1cc(S(=O)(=O)N2CCCCC2)ccc1Cl`, the AC50 was 7.47 µM.

With `O=C(Cc1cccs1)N/N=C\c1ccc([N+](=O)[O-])s1`, the AC50 was 7.04 µM.

Consider `C#CC(=O)N(c1cccc(OC)c1)C(C(=O)NC1CCCC1)c1cccs1` (centres undefined), for which the AC50 was 14.7 µM.

On to `CCC(Sc1nc(C)cc(C)n1)C(=O)NC1=NN=C(c2ccc(C)cc2)CS1` (centres undefined), for which the AC50 was 2.14 µM.

Turning to `Cc1ccnc2c1ccc1c(C)ccnc12`, the AC50 is 3.39 µM.

For `CCOc1ccc(-c2cc(C(=O)NCCCn3ccnc3)c3cc(Br)ccc3n2)cc1`, the AC50 is 12.6 µM.
